Measured values: patent US10407440B2, “Therapeutic agent for motor disorders” (KYOWA HAKKO KIRIN CO., LTD., priority 2009, dated 2019)

Columns and labels:
Type in all cases: in vivo
[1] = system: MPTP-treated common marmoset that developed motor complication; experiment: Test Example 5: influence on dyskinesia in MPTP-treated common marmoset that developed motor complication; details: L-DOPA alone 1.25, 2.5, 5.0, 7.5 and 10 mg/kg (with benserazide hydrochloride)
Experimental: 10 mg/kg of L-DOPA (containing 2.5 mg/kg of benserazide hydrochloride) was administered to common marmoset that developed chronic parkinsonian symptoms by treatment with MPTP by the method described in Test Example 3 (MPTP-treated marmoset) twice a day at about 6 hr intervals. L-DOPA was repeatedly administered for more than 3 weeks to induction of motor complication (dyskinesia symptom, wearing-off phenomenon, on-off fluctuation and the like) in MPTP-treated marmoset in addition to parkinsonian symptoms, and the marmoset was used for the test. The dyskinesia severity was rating using the rating scale described in a previous report [[…] of Neurology, vol. 43, p. 507 (1998)] as in Test Example 2. […] The subject animal was placed in an observation cage (with locomotor activity measuring apparatus) one day before the test compound administration for preconditioning to the environment. The dyskinesia symptoms were observed through one-way mirror and scored each 20 min for 6 hr. [table] The locomotor activity was automatically measured using a computer by a measuring apparatus with a photocell.

[2] = system: MPTP-treated common marmoset that developed motor complication; experiment: Test Example 4: combination with L-DOPA in MPTP-treated common marmoset that developed motor complication
Experimental: 10 mg/kg of L-DOPA (containing 2.5 mg/kg of benserazide hydrochloride) was administered by gavage to common marmoset that developed chronic parkinsonian symptoms by treatment with MPTP by the method described in Test Example 3 (MPTP-treated marmoset) twice a day at about 6 hr intervals. L-DOPA was repeatedly administered for more than 3 weeks to induction of motor complication (dyskinesia symptom, wearing-off phenomenon, on-off fluctuation and the like) in MPTP-treated marmoset in addition to parkinsonian symptoms, and the marmoset was used for the test. […] The locomotor activity was automatically measured using a computer by a measuring apparatus with a photocell. […] The subject animal was placed in an observation cage (with locomotor activity measuring apparatus) one day before the test compound administration for preconditioning to the environment. The symptoms of Parkinson's disease were continuously monitored through one-way mirror and disability score was scored each 10 min for 6 hr.

[3] = system: MPTP-treated common marmoset; experiment: Test Example 3: combination with L-DOPA in MPTP-treated common marmoset, motor disability score; details: L-DOPA alone 2.5, 5.0, 7.5 and 10.0 mg/kg (with 1/4 amount benserazide hydrochloride)
Excerpt: Parkinson's disease is a disease based on the progressive degeneration and loss of dopaminergic neuron in substantia nigra-striatum. In primates, a treatment with MPTP, which is a dopamine neurotoxin, causes selective degeneration and loss of dopaminergic neuron in substantia nigra-striatum and induces symptoms of akinesia, muscle rigidity and the like. The primates treated with MPTP are known as the model of Parkinson's disease [Proceedings of the National Academy of Science USA, vol. 80, p. 4546 (1983)]. In addition, common marmoset belongs to Haplorhini and is known to show the symptoms of Parkinson's disease by MPTP, like other Haplorhini [Neuroscience Letter, vol. 57, p. 37 (1985)]. […] The parkinsonian symptoms were judged using the index described in a previous report [Annales of Neurology, vol. 43, p. 507 (1998)]. All compounds were used as a suspension in 0.5% MC400, 10% aqueous sucrose solution. The subject animal was placed in an observation cage (with locomotor activity measuring apparatus) one day before the test compound administration for preconditioning to the environment. The symptoms of Parkinson's disease were continuously monitored through one-way mirror and disability score was scored each 10 min for 6 hr.
The locomotor activity was automatically measured using a computer by a measuring apparatus with a photocell.

dyskinesia [1]: dyskinesia was induced
SMILES: N[C@@H](Cc1ccc(O)c(O)c1)C(=O)O [L-DOPA]
duration (on-time) of anti-parkinsonian activities of L-DOPA ([2]; L-DOPA 2.5 mg/kg alone, gavage): about 50 min
minimum disability score ([2]; L-DOPA 2.5 mg/kg alone, gavage): 5.33±0.80
parkinsonian symptoms ([2]; L-DOPA alone 2.5 mg/kg or 10 mg/kg (with benserazide hydrochloride)): decreased with the increasement of dosage
parkinsonian symptoms [3]: decreased within increasement of the dosage
